Entries after “also recorded” stand apart in the source; their conditions may differ.
System: p62 and LC3B protein expression in U87-MG cells
Assay: Western blot of autophagy markers p62 and LC3B
Assay type: cell-based, human
Description: Ras dysregulated tumors depend on autophagy to remove damaged mitochondria and allow for their survival. […] LC3B I is lipidated to form LC3B II following induction of autophagy. LC3B II is recruited and subsequently integrated into the autophagosome. p62 functions as an adaptor protein in autophagy by binding to both ubiquitin-labeled damaged cargo such as protein aggregates or mitochondria and LC3B II to facilitate cargo uptake into the autophagosome. Degradation of the cargo occurs when the autophagosome fuses with the lysosome; when autophagy is inhibited with hydroxychloroquine (HCQ), a drug that prevents acidification of the lysosome, both LC3B II and p62 accumulate as derogation of the autophagosome is prevented, making them valuable markers of autophagic flux.
The data for FIG. 4 was obtained as follows: U87-MG cells were plated in 6-well plates at a concentration of 500,000 cells/well and allowed to adhere overnight. Cells were treated for 12 h with either DMSO or 2 μM Y102, followed by an additional 12 h co-treatment with or without 50 μM HCQ. Following treatment, cells were harvested using 0.25% trypsin, rinsed with PBS, and lysed with 75 μL modified RIPA buffer (50 mM NaCl, 1% v/v nonidet P40, 0.5% w/v sodium deoxycholate, 0.05% w/v sodium dodecyl sulfate, 50 mM Tris pH 8.0) containing 1 mM NaVO4, 1 mM NaF, 1 mM phenylmethylsulfonyl fluoride, 0.1 μg/mL leupeptin, 100 μM benzamidine HCl, 1 μM aprotinin, 0.1 μg/mL soybean trypsin inhibitor, 0.1 μg/mL pepstatin, and 0.1 μg/mL antipain. Protein was quantified using a BCA assay kit (Pierce). 40 μg of protein prepared in 1× Laemmli sample buffer (50 mM Tris pH 6.8, 0.02% w/v bromophenol blue, 2% w/v sodium dodecyl sulfate, 10% v/v glycerol, 1% v/v beta-mercaptoethanol, 12.5 mM EDTA) was separated on a 4-15% polyacrylamide gel using sodium dodecyl sulfate-polyacrylamide gel electrophoresis. Protein was transferred to nitrocellulose membrane, blocked in 5% nonfat milk in TBST, and probed with primary antibodies anti-LC3BI/II (Cell Signaling, 1:1000, overnight at 4° C.), anti-p62/SQSTM-1 D-3 (Santa Cruz, 1:1000, 1 h at room temperature), or anti-α-tubulin B-1-2-5 (Santa Cruz, 1:10000, 1 h at room temperature) in 2% nonfat milk in TBST. Blots were incubated in 1:20,000 anti-rabbit HRP or 1:10,000 anti-mouse HRP secondary antibodies diluted in 2% nonfat milk in TBST for 1 h at room temperature. Film was exposed to standard ECL (Pierce)-coated blots and developed using a standard film processor.

Compound: Cn1cnnc1S/C=C/C(=O)c1ccc(F)cc1 [Y102]
- LC3B I/II conversion (LC3B II accumulation) (12 hours Y102 followed by 12 hours HCQ co-treatment): LC3B II accumulation occurred, but not as robustly as with HCQ alone; also recorded: LC3B I/II conversion was seen
- p62 accumulation (autophagy marker) (U87-MG, Western blot, 24 hours, 2 μM Y102, 50 μM HCQ): accumulation of the autophagy marker p62
- LC3B I/II conversion (LC3B II accumulation) (U87-MG, Western blot, single agent, 2 μM Y102, 50 μM HCQ): not found to accumulate; also recorded: not LC3B I/II conversion

From patent US9873705B2, “Vinylogous thioester compounds and methods of use” (THE TRUSTEES OF DARTMOUTH COLLEGE, priority 2015, dated 2018)
